Source: ChEMBL document CHEMBL1201862, “PubChem BioAssay data set” (2004)
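Tested at 5 concentrations; 48 h exposure; 96-well plates; endpoints linearly interpolated, else capped at highest concentration. GI50: concentration for 50% inhibition of growth.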 Calls of active or inactive are those of the source. Rule as the data show it: active = GI50 up to about 1.1 µM and inactive = higher.

Columns and labels:
Assay in all cases: NCI tumour cell line growth inhibition, 48 h
786-0 = test system: 786-0
TK-10 = test system: TK-10
OVCAR-3 = test system: OVCAR-3
M14 = test system: M14
SNB-19 = test system: SNB-19
HCC 2998 = test system: HCC 2998
A498 = test system: A498
LOX IMVI = test system: LOX IMVI
HL-60 = test system: HL-60
Malme-3M = test system: Malme-3M
UACC-257 = test system: UACC-257
SK-MEL-2 = test system: SK-MEL-2
SF-295 = test system: SF-295
HT-29 = test system: HT-29
NCI-H522 = test system: NCI-H522
SK-MEL-28 = test system: SK-MEL-28
HCT-116 = test system: HCT-116

Row | Structure (SMILES) | GI50 (786-0) | GI50 (TK-10) | GI50 (OVCAR-3) | GI50 (M14) | GI50 (SNB-19) | GI50 (HCC 2998) | GI50 (A498) | GI50 (LOX IMVI) | GI50 (HL-60) | GI50 (Malme-3M) | GI50 (UACC-257) | GI50 (SK-MEL-2) | GI50 (SF-295) | GI50 (HT-29) | GI50 (NCI-H522) | GI50 (SK-MEL-28) | GI50 (HCT-116)
1 | CCN(CC)CCCN(c1cc(OC)cc2nccnc12)S(=O)(=O)c1ccc(C)cc1 | > 100 µM (inactive) | > 100 µM (inactive) | > 100 µM (inactive) | > 100 µM (inactive) | > 100 µM (inactive) | > 100 µM (inactive) | > 100 µM (inactive) | > 100 µM (inactive) | > 100 µM (inactive) | > 100 µM (inactive) | > 100 µM (inactive) | > 100 µM (inactive) | > 100 µM (inactive) | > 100 µM (inactive) | > 100 µM (inactive) | > 100 µM (inactive) | 
2 | CCC1CN2CCc3cc(OC)c(OC)cc3C2CC1CC1c2cc(OC)c(OC)cc2CCN1C(=O)C1CCCN1 (centres undefined) | 17.1 µM (inactive) | 45.4 µM (inactive) | 27.4 µM (inactive) | 14.5 µM (inactive) | 14.9 µM (inactive) | 23.9 µM (inactive) | 28.6 µM (inactive) | 24.9 µM (inactive) | 19.3 µM (inactive) | 21.4 µM (inactive) | 17.2 µM (inactive) | 27.8 µM (inactive) | 41 µM (inactive) | 27.4 µM (inactive) | 16.3 µM (inactive) | 18.8 µM (inactive) | 19.5 µM (inactive)
3 | Cc1nsc2cc(Cl)n(C)c(=O)c12 | > 100 µM (inactive) | > 100 µM (inactive) | > 100 µM (inactive) | > 100 µM (inactive) | > 100 µM (inactive) | 0.991 µM (active) | > 100 µM (inactive) | > 100 µM (inactive) | > 100 µM (inactive) | > 100 µM (inactive) | > 100 µM (inactive) | > 100 µM (inactive) |  | > 100 µM (inactive) | 24.8 µM (inactive) | > 100 µM (inactive) | > 100 µM (inactive)
4 | COc1c(C)c(O)c2c(c1C)OC(c1ccccc1)CC2=O (centres undefined) | 89.3 µM (inactive) | 42.9 µM (inactive) | > 100 µM (inactive) | 67.1 µM (inactive) |  | 56.1 µM (inactive) | 19.9 µM (inactive) | 46.3 µM (inactive) | 28.3 µM (inactive) | 24.6 µM (inactive) | > 10 µM (inactive) | 22.4 µM (inactive) | 50.6 µM (inactive) | 43.2 µM (inactive) | 45.9 µM (inactive) | 50.4 µM (inactive) | 47.8 µM (inactive)
5 | COc1ccc(C)cc1-c1ccc(-c2cc(C)ccc2OC)o1 | > 100 µM (inactive) | > 100 µM (inactive) | > 100 µM (inactive) | > 100 µM (inactive) | > 100 µM (inactive) | > 100 µM (inactive) | > 100 µM (inactive) | > 100 µM (inactive) | 86.5 µM (inactive) | 66.4 µM (inactive) | > 100 µM (inactive) | 56.9 µM (inactive) | > 100 µM (inactive) | > 100 µM (inactive) | > 100 µM (inactive) | > 100 µM (inactive) | > 100 µM (inactive)
6 | COC(=O)[C@@]12C3=NO[C@]1(C(=O)OC)C(O[Si](C)(C)C(C)(C)C)[C@@H](OC(C)=O)[C@@H](OC(C)=O)[C@@H]2[C@@H](OCc1ccccc1)CC3 (some centres undefined) | 14.2 µM (inactive) | > 100 µM (inactive) | 13.5 µM (inactive) | > 100 µM (inactive) | 8.81 µM (inactive) | > 100 µM (inactive) | > 85.3 µM (inactive) | 8.81 µM (inactive) | 3.86 µM (inactive) | 7.28 µM (inactive) | 17.4 µM (inactive) | 8.26 µM (inactive) | 5.68 µM (inactive) | > 72.3 µM (inactive) | 3.86 µM (inactive) | > 23.8 µM (inactive) | 5.07 µM (inactive)
